Laboratory results reported in patent US20130065818A1, “Arylamide Compounds And Compositions And Uses Thereof” (POLYMEDIX, priority 2006, published 2013).
Several values for one entry are separate records, joined by “and”; a condition that tells them apart may be missing. Equal values may be shown once.

Tests used:
Assay in all cases: MIC, 25 ocular isolates, broth microdilution (Example 8)
Assay type in all cases: cell-based
[1] = tested on: Staphylococcus aureus fluoroquinolone-susceptible; set-up: Mean MIC (Descriptive Statistics) / Minimum MIC (Descriptive Statistics) / Maximum MIC (Descriptive Statistics): unit: µg/mL; details: 25 isolates
Experimental: (§1) • Mueller-Hinton Broth in tubes was inoculated with 25 ocular isolates of Staphylococcus aureus fluoroquinolone-susceptible, Staphylococcus aureus fluoroquinolone-resistant, Staphylococcus epidermidis (Coagulase-negative Staphylococcus) fluoroquinolone-susceptible, Staphylococcus epidermidis (Coagulase-negative Staphylococcus) fluoroquinolone-resistant, Pseudomonas aeruginosa and Serratia marcescens, plus two controls (Staphylococcus aureus and E. coli) and incubated at 37° C. overnight on a shaker set at 250 rpm.
(§2) On the day of testing, a 640 μg/ml (1280 μg/ml for Serratia marcescens and Pseudomonas aeruginosa) concentration was prepared from a 1% stock solution in 0.01% acetic acid, 0.2% BSA in polypropylene tubes.
(§3) Serial doubling dilutions in 0.01% acetic acid, 0.2% BSA in 96 well polypropylene plates, which are used as reservoirs for the inoculation of the test plates, were carried out to obtain serial dilutions of test agents at 10 times the required test concentrations: 640, 320, 160, 80, 40, 20, 10, 5, 2.5, 1.25, and 0.625 μg/ml (1280, 640, 320, 160, 80, 40, 20, 10, 5, 2.5, and 1.25 μg/ml for Serratia marcescens and Pseudomonas aeruginosa).
(§4) Ten μl of diluted 10×test agents was added to each well of one row of the 96 well polypropylene plates from column 2 to column 12 (column 1 is a control for bacteria alone, with no peptide). Test agent concentrations in columns 2-12 were as follows: 64, 32, 16, 8, 4, 2, 1, 0.5, 0.25, 0.125, and 0.0625 μg/ml (128, 64, 32, 16, 8, 4, 2, 1, 0.5, 0.25, and 0.125 μg/ml for Serratia marcescens and Pseudomonas aeruginosa). The same peptide was in each of the 8 rows. One plate contained dilutions of one test agent and 8 bacterial isolates.
(§5) On the day of testing, the overnight bacterial broth cultures of Staphylococcus aureus fluoroquinolone-susceptible, Staphylococcus aureus fluoroquinolone-resistant, Staphylococcus epidermidis (Coagulase-negative Staphylococcus) fluoroquinolone-susceptible, Staphylococcus epidermidis (Coagulase-negative Staphylococcus) fluoroquinolone-resistant, Serratia marcescens, and Pseudomonas aeruginosa, plus two controls (Staphylococcus aureus and E. coli) were diluted in 5 ml of trypticase soy broth to yield turbidity equal to a 0.5 McFarland standard. The final inoculum for MIC testing for Staphylococcus aureus fluoroquinolone-susceptible, Staphylococcus aureus fluoroquinolone-resistant, Staphylococcus epidermidis (Coagulase-negative Staphylococcus) fluoroquinolone-susceptible, Staphylococcus epidermidis (Coagulase-negative Staphylococcus) fluoroquinolone-resistant, Serratia marcescens, and Pseudomonas aeruginosa was achieved by placing 0.05 ml of the turbidity adjusted sample to 5 ml of Mueller-Hinton broth.
(§6) Ninety μl of the bacterial suspensions was dispensed in each well from column 1 to column 12. Each bacterial isolate was placed in one row of a 96 well polypropylene plate containing the test agents. The plates were placed on shaker at 15 minutes at room temperature, and then incubated at 37° C. overnight. MICs were determined visually as the lowest concentration of drug that inhibits visible bacterial growth.

Pseudomonas aeruginosa = details: 25 isolates; >128 was Replaced with 256
Experimental: as §1, §2, §3, §4, §5, §6

Serratia marcescens = details: 25 isolates; >128 was Replaced with 256
Experimental: as §1, §2, §3, §4, §5, §6

[2] = tested on: Staphylococcus aureus fluoroquinolone-resistant; details: 25 isolates
Experimental: as §1, §2, §3, §4, §5, §6

[3] = tested on: Staphylococcus epidermidis (Coagulase-negative Staphylococcus) fluoroquinolone-resistant; details: 25 isolates; <0.0625 was Replaced with 0.03125
Experimental: as §1, §2, §3, §4, §5, §6

[4] = tested on: Staphylococcus epidermidis (Coagulase-negative Staphylococcus) fluoroquinolone-susceptible; details: 25 isolates; <0.0625 was Replaced with 0.03125
Experimental: as §1, §2, §3, §4, §5, §6

[5] = tested on: Moraxella species (including Moraxella catarrhalis); details: for Minimum MIC / Maximum MIC / Mean MIC: descriptive statistics, n=25; for Maximum MIC / Mean MIC / Median MIC: >64 replaced with 128; for Median MIC: n=25 isolates
Experimental: (§7) Mueller-Hinton Broth supplemented with 2% lysed horse blood in tubes was inoculated with 25 ocular isolates of Streptococcus pneumoniae, Streptococcus viridans group, and Moraxella species (including Moraxella catarrhalis) plus two controls (Staphylococcus aureus and E. coli) and incubated at 37° C. overnight. Additionally, Mueller-Hinton Broth in tubes was inoculated with two controls (Staphylococcus aureus and E. coli) and incubated at 37° C. overnight on a shaker set at 250 rpm.
as §2, §3, §4
(§8) On the day of testing, the overnight bacterial broth cultures of Streptococcus pneumoniae, Streptococcus viridans and Moraxella species (including Moraxella catarrhalis) plus two controls (Staphylococcus aureus and E. coli) were diluted in 5 ml of trypticase soy broth to yield turbidity equal to a 0.5 McFarland standard. The final inoculum for MIC testing for Streptococcus pneumoniae, Streptococcus viridans and Moraxella species (including Moraxella catarrhalis) was achieved by placing 0.1 ml of the turbidity adjusted sample to 5 ml of Mueller-Hinton broth containing 2% lysed horse red blood cells.
as §6

Streptococcus pneumoniae = details: 25 isolates; >64 was Replaced with 128
Experimental: as §7, §2, §3, §4, §8, §6

[6] = tested on: Streptococcus viridans group; details: 25 isolates; >64 was Replaced with 128
Experimental: as §7, §2, §3, §4, §8, §6

Haemophilus influenzae = details: for Minimum MIC / Maximum MIC / Mean MIC: descriptive statistics, n=25; for Maximum MIC / Mean MIC / Median MIC: >64 replaced with 128; for Median MIC: n=25 isolates
Experimental: HTM (Haemophilus Test Medium) in tubes was inoculated with 25 ocular isolates of Haemophilus influenzae plus two controls (Staphylococcus aureus and E. coli) and incubated at 37° C. overnight. Additionally, Mueller-Hinton Broth in tubes was inoculated with two controls (Staphylococcus aureus and E. coli) and incubated at 37° C. overnight on a shaker set at 250 rpm.
as §2, §3, §4
On the day of testing, the overnight bacterial broth cultures of Haemophilus species was diluted in 5 ml of trypticase soy broth to yield turbidity equal to a 0.5 McFarland standard. The final inoculum for MIC testing for Haemophilus species was achieved by placing 0.1 ml of the turbidity adjusted sample to 5 ml of HTM medium.
as §6

Row | SMILES | Maximum MIC (Descriptive Statistics) [1] | Mean MIC (Descriptive Statistics) [1] | Median MIC (Descriptive Statistics / Mann-Whitney) [1] | Minimum MIC (Descriptive Statistics) [1] | Maximum MIC (Descriptive Statistics) (Pseudomonas aeruginosa) | Mean MIC (Descriptive Statistics) (Pseudomonas aeruginosa) | Median MIC (Descriptive Statistics / Mann-Whitney) (Pseudomonas aeruginosa) | Minimum MIC (Descriptive Statistics) (Pseudomonas aeruginosa) | Maximum MIC (Descriptive Statistics) (Serratia marcescens) | Mean MIC (Descriptive Statistics) (Serratia marcescens) | Median MIC (Descriptive Statistics / Mann-Whitney) (Serratia marcescens) | Minimum MIC (Descriptive Statistics) (Serratia marcescens) | Maximum MIC (Descriptive Statistics) [2] | Mean MIC (Descriptive Statistics) [2] | Median MIC (Descriptive Statistics / Mann-Whitney) [2] | Minimum MIC (Descriptive Statistics) [2] | Maximum MIC (Descriptive Statistics) [3] | Mean MIC (Descriptive Statistics) [3] | Median MIC (Descriptive Statistics / Mann-Whitney) [3] | Minimum MIC (Descriptive Statistics) [3] | also measured
1 | N=C(N)NCCCCC(=O)Nc1cc(C(F)(F)F)cc(NC(=O)c2cnc(C(=O)Nc3cc(C(F)(F)F)cc(NC(=O)CCCCNC(=N)N)c3SCCN)cn2)c1SCCN [Olig 5] | 0.5000 | 0.2450 | 0.2500 | 0.1250 | 256 µg/mL | 85.9 µg/mL | 64.0 | 4 µg/mL | 256 µg/mL | 233 µg/mL | 256.0 | 8 µg/mL | 0.5000 | 0.2900 | 0.2500 | 0.1250 | 0.5000 | 0.1475 | 0.125 | 0.0313 | Maximum MIC (Descriptive Statistics) [4]: 0.2500; Mean MIC (Descriptive Statistics) [4]: 0.1375; Median MIC (Descriptive Statistics / Mann-Whitney) [4]: 0.125; Minimum MIC (Descriptive Statistics) [4]: 0.0313; Minimum MIC [5]: 0.13 µg/mL; Maximum MIC [5]: 128.00 µg/mL; Mean MIC [5]: 13.26 µg/mL; Median MIC [5]: 0.50 µg/mL; Maximum MIC (Descriptive Statistics) (Streptococcus pneumoniae): 128 µg/mL; Mean MIC (Descriptive Statistics) (Streptococcus pneumoniae): 10.6 µg/mL; Median MIC (Descriptive Statistics / Mann-Whitney) (Streptococcus pneumoniae): 4.00; Minimum MIC (Descriptive Statistics) (Streptococcus pneumoniae): 0.5 µg/mL; Maximum MIC (Descriptive Statistics) [6]: 128 µg/mL; Mean MIC (Descriptive Statistics) [6]: 36.8 µg/mL; Median MIC (Descriptive Statistics / Mann-Whitney) [6]: 16.00; Minimum MIC (Descriptive Statistics) [6]: 0.5 µg/mL; Minimum MIC (Haemophilus influenzae): 2.0 µg/mL; Maximum MIC (Haemophilus influenzae): 128.0 µg/mL; Mean MIC (Haemophilus influenzae): 48.6 µg/mL; Median MIC (Haemophilus influenzae): 16.0 µg/mL and 16.00 µg/mL
2 | N=C(N)NCCCCC(=O)Nc1cc(C(F)(F)F)cc(NC(=O)c2cc(C(=O)Nc3cc(C(F)(F)F)cc(NC(=O)CCCCNC(=N)N)c3O[C@@H]3CCNC3)ncn2)c1O[C@@H]1CCNC1 [Olig 4] | 0.5000 | 0.2850 | 0.2500 | 0.1250 | 8 µg/mL | 3.54 µg/mL | 4.00 | 0.5 µg/mL | 32 µg/mL | 12.4 µg/mL | 8.00 | 0.25 µg/mL | 1.0000 | 0.3200 | 0.2500 | 0.1250 | 0.2500 | 0.1300 | 0.125 | 0.0313 | Maximum MIC (Descriptive Statistics) [4]: 0.2500; Mean MIC (Descriptive Statistics) [4]: 0.1388; Median MIC (Descriptive Statistics / Mann-Whitney) [4]: 0.125; Minimum MIC (Descriptive Statistics) [4]: 0.0313; Minimum MIC [5]: 0.50 µg/mL; Maximum MIC [5]: 128.00 µg/mL; Mean MIC [5]: 21.42 µg/mL; Median MIC [5]: 4.00 µg/mL; Maximum MIC (Descriptive Statistics) (Streptococcus pneumoniae): 128 µg/mL; Mean MIC (Descriptive Statistics) (Streptococcus pneumoniae): 6.08 µg/mL; Median MIC (Descriptive Statistics / Mann-Whitney) (Streptococcus pneumoniae): 1.00; Minimum MIC (Descriptive Statistics) (Streptococcus pneumoniae): 0.5 µg/mL; Maximum MIC (Descriptive Statistics) [6]: 32 µg/mL; Mean MIC (Descriptive Statistics) [6]: 5.84 µg/mL; Median MIC (Descriptive Statistics / Mann-Whitney) [6]: 4.00; Minimum MIC (Descriptive Statistics) [6]: 1 µg/mL; Minimum MIC (Haemophilus influenzae): 2.00 µg/mL; Maximum MIC (Haemophilus influenzae): 32.00 µg/mL; Mean MIC (Haemophilus influenzae): 8.56 µg/mL; Median MIC (Haemophilus influenzae): 8.00 µg/mL
